Test results published in patent US12383549B2, “Combination therapy of crenolanib and apoptosis pathway agents for the treatment of proliferative disorders” (Arog Pharmaceuticals, Inc., priority 2020, dated 2025).

Tests used:
[1] = tested on: relapsed or refractory AML patients with activating FLT3 mutations (FLT3-ITD); assay: Clinical trial NCT02400281: oral crenolanib besylate in combination with intravenous azacitidine, single-patient case reports; format: in vivo, human
Excerpt: For the majority of patients, the clinical response is short-lived. Response criteria for AML clinical trials are adapted from the International Working Group for AML (Cheson, Bennett et al. 2003). Responders are patients who obtain a Complete Response (CR), Complete Response with incomplete blood count recovery (CRi), or Partial Remission (PR). Briefly, criteria are as follows: • 1. Complete Remission (CR): • a. Peripheral blood counts: • i. No circulating blasts • ii. Neutrophil count ≥1.0×10^9/L • iii. Platelet count ≥100×10^9/L • b. Bone marrow aspirate and biopsy: • i. ≤5% blasts • ii. No Auer Rods • iii. No extramedullary leukemia • 2. Complete remission with incomplete blood count recovery (CRi): • a. Peripheral blood counts: • i. No circulating blasts • ii. Neutrophil count <1.0×10^9/L, or • iii. Platelet count <100×10^9/L • b. Bone marrow aspirate and biopsy • i. ≤5% blasts • ii. No Auer Rods • iii. No extramedullary leukemia • 3. Partial remission: • a. All CR criteria if abnormal before treatment except: • b. ≥50% reduction in bone marrow blast but still >5%
(§1) To overcome the poor prognosis of the persistent FLT3-ITD mutation, the patient was provided oral crenolanib besylate in combination with intravenous azacitidine on a clinical trial for relapsed or refractory AML patients with activating FLT3 mutations (NCT02400281). At baseline, the patient presented with 64% bone marrow blasts. The patient began treatment with 75 mg/m^2/day of azacitidine for 7 days and 60 mg of oral crenolanib besylate three times daily for the remainder of the 28 days cycle.
as §1, with “13%” for “64%”, “80” for “60”, “daily.” for “daily for the remainder of the 28 days cycle.”

[2] = tested on: PDGFR, FLT3, and TRK kinases; conditions: versus other kinases, including c-KIT, VEGFR2, TIE2, FGFR2, EGFR, ERBB2, and SRC; cited from earlier work
[3] = tested on: PB and BM blasts of leukemia patients; conditions: cited from earlier work

CC1(COc2ccc3c(c2)ncn3-c2ccc3cccc(N4CCC(N)CC4)c3n2)COC1 [crenolanib besylate]
bone marrow blasts ([1]; Example 1: person, FLT3-ITD relapsed AML, baseline 64% blasts, azacitidine 75 mg/m^2/day for 7 days + crenolanib besylate 60 mg oral three times daily, after 27 days): 3% | clinical response ([1]; Example 1: same patient and regimen with azacitidine, after 27 days, neutrophils recovered, platelets partially recovered): CRi | bone marrow blasts ([1]; Example 2: person, FLT3-ITD AML relapsed after transplant, baseline 13% blasts, azacitidine 75 mg/m^2/day for 7 days + crenolanib besylate 80 mg oral three times daily, after 28 days): 1% | clinical response ([1]; Example 2: same patient and regimen with azacitidine, after 28 days): morphological leukemia free state | clinical response on continued single agent therapy ([1]; Example 2: single agent crenolanib besylate for an additional 28 days): maintained a MLFS

CC1(COc2ccc3c(c2)ncn3-c2ccc3cccc(N4CCC(N)CC4)c3n2)COC1 [crenolanib]
selectivity for PDGFR, FLT3, and TRK kinases [2]: significantly more selective

CNC(=O)c1cc(Oc2ccc(NC(=O)Nc3ccc(Cl)c(C(F)(F)F)c3)cc2)ccn1 [sorafenib]
bone marrow (BM) blast reduction [3]: only modest BM blast reductions
